In patent US20240408086A1, “USE OF LUVADAXISTAT FOR THE TREATMENT OF COGNITIVE IMPAIRMENT” (TAKEDA PHARMACEUTICAL COMPANY LIMITED, priority 2021, published 2024):
Read-outs that look alike come from different tables or passages of the source.

Test system: adult patients with persistent negative symptoms of schizophrenia
Assay type: in vivo, human
From the text: To assess changes in cognitive impairment associated with schizophrenia (CIAS), secondary endpoints included the 12-week change from baseline in the Brief Assessment of Cognition in Schizophrenia (BACS) composite score, a measure of cognition across multiple domains, and the Schizophrenia Cognition Rating Scale (SCORS) score, a measure of day-to-day cognitive functioning requiring input from an adult informant. Secondary endpoints were not corrected for multiplicity.
The BACS is specifically designed to measure treatment-related improvements in cognition and includes alternate forms. BACS is a reliable and sensitive measure of cognitive function in schizophrenia. The BACS is a cognition assessment battery that assesses 6 domains of cognitive function found to be consistently impaired in schizophrenia: verbal memory; working memory; motor speed; attention; executive functions; and verbal fluency. The primary measure from each test of the BACS is standardized by creating T-scores whereby the mean of the test session of a matched reference healthy participant is set to 50 and the standard deviation set to 10.

[1] = 125 mg once daily, preliminary analysis
[2] = 500 mg once daily, MMRM, preliminary analysis
[3] = 500 mg once daily, preliminary analysis

## O=c1[nH]nc(CCc2ccc(C(F)(F)F)cc2)cc1O [Compound (I), luvadaxistat]
[1]
  BACS Working Memory Cognition Domain, Change from Baseline to Week 6, Median: 2.0
  BACS Working Memory Cognition Domain, Change from Baseline to Week 12, Mean (SD): 1.8 (7.40)
  BACS Working Memory Cognition Domain, Change from Baseline to Week 12, Median: 0.0
  BACS Working Memory Cognition Domain, Week 6, Mean (SD): 41.0 (11.17)
  BACS Working Memory Cognition Domain, Week 6, Median: 41.0
  BACS Working Memory Cognition Domain, Week 12, Mean (SD): 41.7 (13.58)
  BACS Working Memory Cognition Domain, Week 12, Median: 40.0
125 mg
  BACS Attention Cognition Domain, Change from Baseline to Week 6, Mean (SD): 2.2 (6.07)
  BACS Attention Cognition Domain, Change from Baseline to Week 6, Median: 2.0
  BACS Attention Cognition Domain, Week 6, Mean (SD): 36.7 (12.72)
  BACS Attention Cognition Domain, Week 6, Median: 37.0
  BACS Executive Functions Cognition Domain, Change from Baseline to Week 6, Mean (SD): 0.8 (9.01)
  BACS Executive Functions Cognition Domain, Change from Baseline to Week 6, Median: 0.0
  BACS Executive Functions Cognition Domain, Week 6, Mean (SD): 46.3 (16.06)
  BACS Executive Functions Cognition Domain, Week 6, Median: 50.0
  BACS Verbal Fluency Cognition Domain, Change from Baseline to Week 6, Mean (SD): 0.8 (4.53)
  BACS Verbal Fluency Cognition Domain, Change from Baseline to Week 6, Median: 1.0
  BACS Verbal Fluency Cognition Domain, Week 6, Mean (SD): 39.1 (8.98)
  BACS Verbal Fluency Cognition Domain, Week 6, Median: 40.0
  BACS Attention Cognition Domain, Change from Baseline to Week 12, Mean (SD): 1.2 (6.41)
  BACS Attention Cognition Domain, Change from Baseline to Week 12, Median: 2.0
  BACS Attention Cognition Domain, Week 12, Mean (SD): 36.2 (12.21)
  BACS Attention Cognition Domain, Week 12, Median: 36.0
  BACS Executive Functions Cognition Domain, Change from Baseline to Week 12, Mean (SD): 2.0 (8.79)
  BACS Executive Functions Cognition Domain, Change from Baseline to Week 12, Median: 3.0
  BACS Executive Functions Cognition Domain, Week 12, Mean (SD): 47.6 (13.17)
  BACS Executive Functions Cognition Domain, Week 12, Median: 51.0
  BACS Verbal Fluency Cognition Domain, Change from Baseline to Week 12, Mean (SD): 2.1 (5.59)
  BACS Verbal Fluency Cognition Domain, Change from Baseline to Week 12, Median: 2.0
  BACS Verbal Fluency Cognition Domain, Week 12, Mean (SD): 40.6 (9.54)
  BACS Verbal Fluency Cognition Domain, Week 12, Median: 39.0
125 mg, MMRM
  BACS Attention Cognition Domain, Adjusted Change from Baseline to Week 6, LS Mean (SE): 2.2 (0.88)
  BACS Attention Cognition Domain, Difference from Placebo for Week 6, LS Mean (SE): 1.2 (1.12)
  BACS Executive Functions Cognition Domain, Adjusted Change from Baseline to Week 6, LS Mean (SE): 0.8 (1.19)
  BACS Executive Functions Cognition Domain, Difference from Placebo for Week 6, LS Mean (SE): 2.0 (1.53)
  BACS Verbal Fluency Cognition Domain, Adjusted Change from Baseline to Week 6, LS Mean (SE): 0.7 (0.68)
  BACS Verbal Fluency Cognition Domain, Difference from Placebo for Week 6, LS Mean (SE): 0.6 (0.87)
  BACS Attention Cognition Domain, Adjusted Change from Baseline to Week 12, LS Mean (SE): 1.4 (1.01)
  BACS Attention Cognition Domain, Difference from Placebo for Week 12, LS Mean (SE): −0.5 (1.29)
  BACS Executive Functions Cognition Domain, Adjusted Change from Baseline to Week 12, LS Mean (SE): 2.0 (1.09)
  BACS Executive Functions Cognition Domain, Difference from Placebo for Week 12, LS Mean (SE): 1.4 (1.38)
  BACS Verbal Fluency Cognition Domain, Adjusted Change from Baseline to Week 12, LS Mean (SE): 1.9 (0.84)
  BACS Verbal Fluency Cognition Domain, Difference from Placebo for Week 12, LS Mean (SE): 0.9 (1.07)
500 mg once daily, MMRM, one-sided unadjusted p 0.070, preliminary analysis
  BACS Verbal Memory Cognition Domain, Difference from Placebo for Week 6, LS Mean (SE): 2.0 (1.33)
500 mg once daily, MMRM, one-sided unadjusted p 0.194, preliminary analysis
  BACS Composite Score, Difference from Placebo for Week 6, LS Mean (SE): 0.9 (1.04)
500 mg once daily, MMRM, one-sided unadjusted p 0.260, preliminary analysis
  BACS Composite Score, Difference from Placebo for Week 12, LS Mean (SE): 0.8 (1.20)
500 mg once daily, MMRM, one-sided unadjusted p 0.329, preliminary analysis
  BACS Verbal Memory Cognition Domain, Difference from Placebo for Week 12, LS Mean (SE): 0.7 (1.49)
500 mg once daily, MMRM, one-sided unadjusted p 0.405, preliminary analysis
  BACS Motor Speed Cognition Domain, Difference from Placebo for Week 12, LS Mean (SE): 0.3 (1.22)
500 mg once daily, MMRM, one-sided unadjusted p 0.637, preliminary analysis
  BACS Working Memory Cognition Domain, Difference from Placebo for Week 12, LS Mean (SE): −0.5 (1.40)
500 mg once daily, MMRM, one-sided unadjusted p 0.788, preliminary analysis
  BACS Working Memory Cognition Domain, Difference from Placebo for Week 6, LS Mean (SE): −0.9 (1.19)
500 mg once daily, MMRM, one-sided unadjusted p 0.812, preliminary analysis
  BACS Motor Speed Cognition Domain, Difference from Placebo for Week 6, LS Mean (SE): −1.1 (1.30)
[2]
  BACS Composite Score, Adjusted Change from Baseline to Week 6, LS Mean (SE): 0.5 (0.87)
  BACS Composite Score, Adjusted Change from Baseline to Week 12, LS Mean (SE): 1.5 (0.99)
  BACS Motor Speed Cognition Domain, Adjusted Change from Baseline to Week 6, LS Mean (SE): −1.3 (1.07)
  BACS Motor Speed Cognition Domain, Adjusted Change from Baseline to Week 12, LS Mean (SE): −0.2 (1.02)
  BACS Verbal Memory Cognition Domain, Adjusted Change from Baseline to Week 6, LS Mean (SE): 0.7 (1.11)
  BACS Verbal Memory Cognition Domain, Adjusted Change from Baseline to Week 12, LS Mean (SE): 0.0 (1.23)
  BACS Working Memory Cognition Domain, Adjusted Change from Baseline to Week 6, LS Mean (SE): −0.9 (0.98)
  BACS Working Memory Cognition Domain, Adjusted Change from Baseline to Week 12, LS Mean (SE): 0.2 (1.15)
[3]
  BACS Composite Score, Change from Baseline to Week 6, Mean (SD): 1.5 (7.57)
  BACS Composite Score, Change from Baseline to Week 6, Median: 1.0
  BACS Composite Score, Change from Baseline to Week 12, Mean (SD): 3.0 (7.98)
  BACS Composite Score, Change from Baseline to Week 12, Median: 3.0
  BACS Composite Score, Week 6, Mean (SD): 35.6 (13.84)
  BACS Composite Score, Week 6, Median: 38.0
  BACS Composite Score, Week 12, Mean (SD): 37.6 (13.86)
  BACS Composite Score, Week 12, Median: 40.0
  BACS Motor Speed Cognition Domain, Change from Baseline to Week 6, Mean (SD): 0.5 (9.53)
  BACS Motor Speed Cognition Domain, Change from Baseline to Week 6, Median: 2.0
  BACS Motor Speed Cognition Domain, Change from Baseline to Week 12, Mean (SD): 2.0 (6.58)
  BACS Motor Speed Cognition Domain, Change from Baseline to Week 12, Median: 2.0
  BACS Motor Speed Cognition Domain, Week 6, Mean (SD): 40.7 (12.38)
  BACS Motor Speed Cognition Domain, Week 6, Median: 41.0
  BACS Motor Speed Cognition Domain, Week 12, Mean (SD): 41.3 (11.31)
  BACS Motor Speed Cognition Domain, Week 12, Median: 40.0
  BACS Verbal Memory Cognition Domain, Change from Baseline to Week 6, Mean (SD): 1.8 (8.65)
  BACS Verbal Memory Cognition Domain, Change from Baseline to Week 6, Median: 2.0
  BACS Verbal Memory Cognition Domain, Change from Baseline to Week 12, Mean (SD): 1.6 (10.04)
  BACS Verbal Memory Cognition Domain, Change from Baseline to Week 12, Median: 0.0
  BACS Verbal Memory Cognition Domain, Week 6, Mean (SD): 42.1 (12.06)
  BACS Verbal Memory Cognition Domain, Week 6, Median: 42.0
  BACS Verbal Memory Cognition Domain, Week 12, Mean (SD): 41.8 (13.82)
  BACS Verbal Memory Cognition Domain, Week 12, Median: 41.0
  BACS Working Memory Cognition Domain, Change from Baseline to Week 6, Mean (SD): 0.5 (7.99)
  BACS Working Memory Cognition Domain, Change from Baseline to Week 6, Median: 0.0
  BACS Working Memory Cognition Domain, Change from Baseline to Week 12, Mean (SD): 1.7 (7.39)
  BACS Working Memory Cognition Domain, Change from Baseline to Week 12, Median: 0.0
  BACS Working Memory Cognition Domain, Week 6, Mean (SD): 40.1 (13.75)
  BACS Working Memory Cognition Domain, Week 6, Median: 43.0
  BACS Working Memory Cognition Domain, Week 12, Mean (SD): 42.6 (13.20)
  BACS Working Memory Cognition Domain, Week 12, Median: 45.0
500 mg
  BACS Attention Cognition Domain, Change from Baseline to Week 6, Mean (SD): 0.9 (6.26)
  BACS Attention Cognition Domain, Change from Baseline to Week 6, Median: 0.0
  BACS Attention Cognition Domain, Week 6, Mean (SD): 35.5 (12.68)
  BACS Attention Cognition Domain, Week 6, Median: 35.0
  BACS Executive Functions Cognition Domain, Change from Baseline to Week 6, Mean (SD): 1.3 (7.62)
  BACS Executive Functions Cognition Domain, Change from Baseline to Week 6, Median: 0.0
  BACS Executive Functions Cognition Domain, Week 6, Mean (SD): 47.0 (10.95)
  BACS Executive Functions Cognition Domain, Week 6, Median: 51.0
  BACS Verbal Fluency Cognition Domain, Change from Baseline to Week 6, Mean (SD): 0.8 (5.87)
  BACS Verbal Fluency Cognition Domain, Change from Baseline to Week 6, Median: 1.0
  BACS Verbal Fluency Cognition Domain, Week 6, Mean (SD): 39.6 (10.14)
  BACS Verbal Fluency Cognition Domain, Week 6, Median: 40.0
  BACS Attention Cognition Domain, Change from Baseline to Week 12, Mean (SD): 3.1 (9.31)
  BACS Attention Cognition Domain, Change from Baseline to Week 12, Median: 2.0
  BACS Attention Cognition Domain, Week 12, Mean (SD): 38.0 (14.08)
  BACS Attention Cognition Domain, Week 12, Median: 36.0
  BACS Executive Functions Cognition Domain, Change from Baseline to Week 12, Mean (SD): 2.0 (9.28)
  BACS Executive Functions Cognition Domain, Change from Baseline to Week 12, Median: 0.0
  BACS Executive Functions Cognition Domain, Week 12, Mean (SD): 48.5 (11.88)
  BACS Executive Functions Cognition Domain, Week 12, Median: 51.0
  BACS Verbal Fluency Cognition Domain, Change from Baseline to Week 12, Mean (SD): 1.3 (6.95)
  BACS Verbal Fluency Cognition Domain, Change from Baseline to Week 12, Median: 0.0
  BACS Verbal Fluency Cognition Domain, Week 12, Mean (SD): 40.6 (10.30)
  BACS Verbal Fluency Cognition Domain, Week 12, Median: 40.0
500 mg, MMRM
  BACS Attention Cognition Domain, Adjusted Change from Baseline to Week 6, LS Mean (SE): 1.0 (0.96)
  BACS Attention Cognition Domain, Difference from Placebo for Week 6, LS Mean (SE): 0.0 (1.15)
  BACS Executive Functions Cognition Domain, Adjusted Change from Baseline to Week 6, LS Mean (SE): 1.1 (1.29)
  BACS Executive Functions Cognition Domain, Difference from Placebo for Week 6, LS Mean (SE): 2.3 (1.57)
  BACS Verbal Fluency Cognition Domain, Adjusted Change from Baseline to Week 6, LS Mean (SE): 0.5 (0.74)
  BACS Verbal Fluency Cognition Domain, Difference from Placebo for Week 6, LS Mean (SE): 0.3 (0.89)
  BACS Attention Cognition Domain, Adjusted Change from Baseline to Week 12, LS Mean (SE): 3.1 (1.09)
  BACS Attention Cognition Domain, Difference from Placebo for Week 12, LS Mean (SE): 1.2 (1.33)
  BACS Executive Functions Cognition Domain, Adjusted Change from Baseline to Week 12, LS Mean (SE): 2.0 (1.19)
  BACS Executive Functions Cognition Domain, Difference from Placebo for Week 12, LS Mean (SE): 1.4 (1.42)
  BACS Verbal Fluency Cognition Domain, Adjusted Change from Baseline to Week 12, LS Mean (SE): 0.5 (0.91)
  BACS Verbal Fluency Cognition Domain, Difference from Placebo for Week 12, LS Mean (SE): −0.5 (1.11)
